Reference: paper PMC8565778, “Evaluation of health benefits of sea lamprey (Petromyzon marinus) isolates using in vitro antiinflammatory and antioxidant assays” (PLoS ONE, 2021)

Key:
[1] = target: T1, COX-1 (cyclooxygenase enzyme-1) (Ovis aries, UniProt P05979); experiment: biochemical; settings: read-out: Bioassay results / COX-1^a
T1 construct: gene PTGS1
T1 sequence (P05979 25-600): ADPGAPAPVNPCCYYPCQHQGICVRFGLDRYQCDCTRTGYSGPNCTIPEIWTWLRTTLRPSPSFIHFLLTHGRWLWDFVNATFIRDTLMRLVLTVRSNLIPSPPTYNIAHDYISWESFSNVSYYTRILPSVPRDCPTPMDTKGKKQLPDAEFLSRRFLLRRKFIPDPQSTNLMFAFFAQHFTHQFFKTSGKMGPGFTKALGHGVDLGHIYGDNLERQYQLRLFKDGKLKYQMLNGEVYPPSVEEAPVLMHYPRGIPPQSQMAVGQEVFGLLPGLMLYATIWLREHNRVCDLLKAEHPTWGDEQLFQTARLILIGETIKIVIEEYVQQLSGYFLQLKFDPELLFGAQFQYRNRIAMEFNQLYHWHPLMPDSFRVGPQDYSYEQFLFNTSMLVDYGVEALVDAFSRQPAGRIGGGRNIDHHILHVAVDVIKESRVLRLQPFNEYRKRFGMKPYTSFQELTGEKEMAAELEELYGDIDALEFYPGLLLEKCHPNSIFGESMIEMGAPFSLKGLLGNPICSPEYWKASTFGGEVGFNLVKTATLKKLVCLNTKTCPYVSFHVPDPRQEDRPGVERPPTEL

[2] = target: T2, COX-2 (cyclooxygenase enzyme-2) (Homo sapiens, UniProt P35354); experiment: biochemical; settings: read-out: Bioassay results / COX-2 ^a
T2 construct: gene PTGS2
T2 sequence (P35354 18-604): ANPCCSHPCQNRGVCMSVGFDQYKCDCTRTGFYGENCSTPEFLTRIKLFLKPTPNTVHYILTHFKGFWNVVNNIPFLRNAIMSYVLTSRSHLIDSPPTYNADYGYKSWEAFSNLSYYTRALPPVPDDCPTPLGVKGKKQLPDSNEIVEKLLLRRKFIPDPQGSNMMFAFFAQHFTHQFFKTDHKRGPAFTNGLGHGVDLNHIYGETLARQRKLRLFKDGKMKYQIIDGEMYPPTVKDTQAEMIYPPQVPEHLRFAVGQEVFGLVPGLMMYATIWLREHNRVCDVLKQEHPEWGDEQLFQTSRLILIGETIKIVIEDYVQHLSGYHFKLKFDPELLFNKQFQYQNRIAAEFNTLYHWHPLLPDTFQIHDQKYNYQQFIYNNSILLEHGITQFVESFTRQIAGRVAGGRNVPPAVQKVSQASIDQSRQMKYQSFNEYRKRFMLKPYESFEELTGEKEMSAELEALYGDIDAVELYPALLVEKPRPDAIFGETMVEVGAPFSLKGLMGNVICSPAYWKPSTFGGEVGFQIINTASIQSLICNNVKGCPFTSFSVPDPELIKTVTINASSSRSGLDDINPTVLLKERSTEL

[3] = target: T1, COX-1 (cyclooxygenase enzyme-1); experiment: in vitro COX-1 enzyme inhibitory assay, single concentration […]; assay type: biochemical; settings: read-out: Bioassay results / COX-1^a
[4] = target: T2, COX-2 (cyclooxygenase enzyme-2); experiment: biochemical; design: In vitro cyclooxygenase (COX-1 and COX-2) enzyme inhibition assay, percent inhibition; settings: read-out: % inhibition
[5] = target: T1, COX-1 (cyclooxygenase enzyme-1); experiment: biochemical; design: In vitro cyclooxygenase (COX-1 and COX-2) enzyme inhibition assay, percent inhibition; settings: read-out: % inhibition
Description: (see S1 File for experimental details). To evaluate the health-beneficial activity of the sea lamprey compounds, we included all isolates of sea lamprey extract for the evaluation of in vitro antiinflammatory and antioxidant activities. […] (S1 File). […] Antiinflammatory activities of arginine, tyrosine, tryptophan, asparagine and inosine were assayed at 50 μg/mL concentration.

[6] = design: Fe2+-induced liposome lipid peroxidation; per cent inhibition measured as loss of fluorescent probe signal; settings: large unilamellar vesicles; LPO (lipid peroxidation of large unilamellar liposomes, Fe2+-initiated); 25 ug/mL; inhibitor
Description: Pure compounds and positive controls were assayed for LPO inhibitory activities according to published procedures from our laboratory (see S1 File for experimental details). The antioxidant assay, the lipid peroxidation inhibitory (LPO) assay, used in this study measures free radical scavenging capability of pure compounds and extracts. In this assay, peroxidation of the lipid was initiated by the addition of Fe^2+ resulting in the generation of radicals, which cause the peroxidation of LUV and in turn the fluorescent probes embedded in it. The loss of fluorescent intensity in the assay indicates the oxidative damage to the lipid component of the LUV [11–15, 21] (S1 File). At 25 μg/mL concentration, cholesteryl palmitate, cholesteryl oleate, cholesteryl eicosapentaenoate and cholesteryl arachidonate inhibited LPO by 38, 60, 72 and 82%, respectively (Table 2) (Fig S in S1 File). The most abundant steroidal compound in sea lamprey was cholesterol and it lacked LPO inhibitory activity. Antioxidant activity profiles of the cholesterol esters were like its antiinflammatory profiles. That is, an increase in chain length and unsaturation increased the LPO activity. Majority of the lipophilic fraction of the sea lamprey extract consisted of glycerides and free fatty acids.

COc1ccc2cc([C@H](C)C(=O)O)ccc2c1 [compound 3, Naproxen]
inhibition at 12 µg/mL [1]: 61.4% | inhibition at 12 µg/mL [2]: 60.5%

CC(C)Cc1ccc(C(C)C(=O)O)cc1 (stereo not shown) [compound 4, Ibuprofen]
inhibition at 15 µg/mL [3]: 56.4%

CC/C=C\C/C=C\C/C=C\C/C=C\C/C=C\CCCC(=O)O[C@H]1CC[C@@]2(C)C(=CC[C@H]3[C@@H]4CC[C@H]([C@H](C)CCCC(C)C)[C@@]4(C)CC[C@@H]32)C1 [compound 10, Cholesteryl eicosapentaenoate]
inhibition at 25 µg/mL [4]: 58.5 ± 1.7% | inhibition at 25 µg/mL [5]: 63.9 ± 2.1% | % inhibition [6]: 72.0 ± 1.4%

CCCCC/C=C\C/C=C\C/C=C\C/C=C\CCCC(=O)O[C@H]1CC[C@@]2(C)C(=CC[C@H]3[C@@H]4CC[C@H]([C@H](C)CCCC(C)C)[C@@]4(C)CC[C@@H]32)C1 [compound 11, Cholesteryl arachidonate]
inhibition at 25 µg/mL [4]: 67.9 ± 2.2% | inhibition at 25 µg/mL [5]: 74.7 ± 0.4% | % inhibition [6]: 82.0 ± 1.4%

NCCCNCCCCNCCCN [compound 42, Spermine]
% inhibition [6]: 16.5 ± 0.7%

CCCC(=O)C(=O)O [compound 43, α-Ketovaleric acid]
% inhibition [6]: 15.0 ± 1.4%

CC(C)C(=O)C(=O)O [compound 44, α-Ketoisovaleric acid]
% inhibition [6]: 15.5 ± 0.7%

CCC(=O)C(=O)O [compound 45, α-Ketobutyric acid]
% inhibition [6]: 16.5 ± 0.7%

CC(O)CC(=O)O (stereo not drawn) [compound 46, β-Hydroxybutyric acid]
% inhibition [6]: 21.5 ± 0.7%

CC(=O)C(=O)O [compound 47, Pyruvic acid]
% inhibition [6]: 23.5 ± 0.7%

O=C(O)C(O)Cc1ccccc1 (stereo not shown) [compound 48, 3-Phenyllactic acid]
% inhibition [6]: 25.0 ± 1.4%
